Read-outs that look alike come from different tables or passages of the source.
Columns and labels:
[1] = Metabolic stability in rat liver microsomes (RLM); conditions: for t1/2: RLM, 0.50 mg protein per mL
5-HT2A receptor [2] = target: T1, 5-HT2A receptor (Homo sapiens, UniProt P28223); assay: cell-based; assay type: cell-based; conditions: Ca^2+ flux, agonist; read-out: 5-HT2A EC50
T1 construct: host or cells: HEK293

5-HT1A receptor = target: T2, 5-HT1A receptor (Homo sapiens, UniProt P08908); assay: cell-based
T2 construct: host or cells: CHO cells
T2 sequence (P08908 1-422): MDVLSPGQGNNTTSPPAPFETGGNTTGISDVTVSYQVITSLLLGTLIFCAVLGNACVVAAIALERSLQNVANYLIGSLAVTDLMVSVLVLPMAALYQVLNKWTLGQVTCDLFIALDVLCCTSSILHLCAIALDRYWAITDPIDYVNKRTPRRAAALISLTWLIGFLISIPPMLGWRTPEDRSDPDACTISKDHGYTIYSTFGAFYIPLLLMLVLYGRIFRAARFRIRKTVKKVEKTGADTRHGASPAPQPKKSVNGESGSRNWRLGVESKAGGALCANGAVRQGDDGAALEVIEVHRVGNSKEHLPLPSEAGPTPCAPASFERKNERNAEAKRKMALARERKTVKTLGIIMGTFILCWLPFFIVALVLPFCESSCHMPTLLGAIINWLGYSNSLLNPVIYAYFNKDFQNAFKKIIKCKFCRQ

5-HT2B receptor = target: T3, 5-HT2B receptor (Homo sapiens, UniProt P41595); assay: cell-based; conditions: Ca^2+ flux, agonist; read-out: 5-HT2B EC50
T3 construct: host or cells: HEK293

5-HT2A receptor [3] = target: T1, 5-HT2A receptor; assay: PathHunter beta-arrestin recruitment assay at 5-HT2A; assay type: cell-based
Method: The degree of arrestin bias varied substantially across the other compounds tested as well.
Arrestin Functional Assay at 5-HT2A. Recruitment of beta-arrestin was determined using a PathHunter assay at Eurofins DiscoverX (Fremont, Calif.) according to their standard protocols. PathHunter GPCR beta-arrestin assays take advantage of DiscoverX's proprietary Enzyme Fragment Complementation technology. The GPCR is fused in frame with a small enzyme donor fragment ProLink™ (PK) and co-expressed in cells stably expressing a fusion protein of beta-arrestin and the larger, N-terminal deletion mutant of beta-galactosidase. Activation of the GPCR (5-HT2A receptor in this case) stimulates binding of beta-arrestin to the PK-tagged GPCR and forces complementation of the two enzyme fragments, resulting in the formation of an active beta-galactosidase enzyme. This interaction leads to an increase in enzyme activity that can be measured using chemiluminescent PathHunter Detection Reagents. Briefly, PathHunter cells expressing 5-HT2A receptors were seeded in a volume of 20 μL into 384-well plates and incubated at 37° C. for the appropriate time prior to testing. […] Plates were then imaged on a microplate reader and the agonist activity was calculated using the following formula: % Activity=100%×(mean RLU of test sample−mean RLU of vehicle control)/(mean MAX control ligand−mean RLU of vehicle control), where RLU=relative light units.

human 5-HT2C receptor = target: T4, human 5-HT2C receptor (Homo sapiens, UniProt P28335); assay: cell-based; conditions: Ca^2+ flux, agonist
T4 sequence (P28335 33-458): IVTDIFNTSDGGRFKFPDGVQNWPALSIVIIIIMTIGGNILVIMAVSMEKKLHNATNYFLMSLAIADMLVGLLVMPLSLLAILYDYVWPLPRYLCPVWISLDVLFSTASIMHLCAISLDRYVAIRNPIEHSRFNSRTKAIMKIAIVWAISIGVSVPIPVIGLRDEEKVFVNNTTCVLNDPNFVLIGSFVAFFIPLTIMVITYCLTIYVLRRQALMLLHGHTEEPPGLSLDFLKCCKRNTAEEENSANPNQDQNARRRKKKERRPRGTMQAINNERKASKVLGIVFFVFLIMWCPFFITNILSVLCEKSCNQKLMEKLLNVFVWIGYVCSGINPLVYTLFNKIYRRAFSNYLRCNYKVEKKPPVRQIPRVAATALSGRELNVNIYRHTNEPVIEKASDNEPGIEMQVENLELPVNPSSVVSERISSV

5-HT2A receptor [4] = target: T1, 5-HT2A receptor; assay: biochemical; assay type: binding; conditions: 1 nM [^3H]ketanserin, HEK293 stable cell line; read-out: 5-HT2A Receptor Ki (nM) ([^3H]ketanserin)
Summary of the method: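 Values reflect [^3H]ketanserin binding competition. Assay conditions were adapted from the literature.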

C57BL/6 mice = assay: Head twitch response (HTR) in mice; assay type: in vivo, mouse; conditions: mouse HTR, SC; for ED50: 20 min, read-out: ED50 (95% CI); for ED50 / Emax (95% CI): 20 min observation, curve fit, poor in some cases
Method: Agonists of the 5-HT2A receptor are well known to induce this effect in rodents and the potency of this HTR is correlated with hallucinogenic potency in humans.
Animals. Adult male C57BL/6 mice, aged 6-8 weeks (body weight 20-25 g) were used in this experiment. Animals were housed under controlled temperatures and 12-hour light/dark cycles (lights on between 07:00-19:00 h), with ad libitum food and water. This study was carried out in strict accordance with the requirements of the Committee for the Purpose of Control and Supervision of Experiments on Animals (CPCSEA), India. All efforts were made to minimize suffering.
Drugs and Drug Administration. Compound 1 was synthesized as described above. It was administered subcutaneously (SC) dissolved in saline vehicle at a volume of 10 mL/kg. Five doses were tested, with n=6 animals/group. Doses were calculated on the basis of the freebase.
Procedure. Mice were administered one dose of the drug and immediately placed into a small open field for behavioral observation. Animals were observed continuously for 20 mins and the number of head twitches (HTs) were counted by an observer blind to the treatment condition.
Statistical Analysis. The data points shown are the mean±standard error of the mean (SEM). Analysis was performed using GraphPad Prism 6. Curves were fit using a non-linear gaussian distribution to calculate ED50 and Emax values.
Additional disclosed compounds were tested in the mouse head twitch response (HTR) assay according to the procedure described in Example 43. […] Lastly, compounds with much larger benzyl and phenethyl substituents on the amine nitrogen (e.g., 10 and 11) were low efficacy in this assay, consistent with their lower maximal efficacy in the arrestin functional assay (see Example 41).

[5] = Metabolic stability in mouse liver microsomes (MLM); assay type: in vitro ADME; conditions: 0.50 mg protein per mL; for t1/2: MLM (CD-1), 1 μM
From the text: MLM Stability Pooled MLM from CD-1 mice (BIOIVT M00501) were used.

[6] = Metabolic stability in human liver microsomes (HLM); assay type: in vitro ADME; conditions: for t1/2: 1 μM, 0.50 mg protein per mL
From the text: HLM Stability. Pooled HLM from adult male and female donors (Corning 452117) were used.

[7] = both, rat, pooled rat liver microsomes, pH 7.4
[8] = Ca^2+ flux, agonist, read-out: 5-HT1A EC50
[9] = mouse, pooled mouse liver microsomes, pH 7.4, MLM (CD-1)
[10] = both sexes, human, pooled human liver microsomes, pH 7.4, 0.50 mg protein per mL

T3 sequence (P41595 whole entry): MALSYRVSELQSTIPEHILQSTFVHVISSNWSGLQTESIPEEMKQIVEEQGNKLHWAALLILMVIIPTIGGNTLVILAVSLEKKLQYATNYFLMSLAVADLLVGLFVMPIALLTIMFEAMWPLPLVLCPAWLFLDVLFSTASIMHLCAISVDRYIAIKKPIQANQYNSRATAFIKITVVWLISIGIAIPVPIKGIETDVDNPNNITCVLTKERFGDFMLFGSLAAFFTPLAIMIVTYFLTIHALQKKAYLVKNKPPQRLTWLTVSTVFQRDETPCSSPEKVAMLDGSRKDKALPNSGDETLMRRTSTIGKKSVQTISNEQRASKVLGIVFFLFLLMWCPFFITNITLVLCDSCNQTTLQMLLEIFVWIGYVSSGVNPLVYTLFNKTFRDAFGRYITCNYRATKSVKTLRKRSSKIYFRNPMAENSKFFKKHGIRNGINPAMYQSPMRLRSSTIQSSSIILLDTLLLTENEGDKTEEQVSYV
T1 sequence (P28223 whole entry): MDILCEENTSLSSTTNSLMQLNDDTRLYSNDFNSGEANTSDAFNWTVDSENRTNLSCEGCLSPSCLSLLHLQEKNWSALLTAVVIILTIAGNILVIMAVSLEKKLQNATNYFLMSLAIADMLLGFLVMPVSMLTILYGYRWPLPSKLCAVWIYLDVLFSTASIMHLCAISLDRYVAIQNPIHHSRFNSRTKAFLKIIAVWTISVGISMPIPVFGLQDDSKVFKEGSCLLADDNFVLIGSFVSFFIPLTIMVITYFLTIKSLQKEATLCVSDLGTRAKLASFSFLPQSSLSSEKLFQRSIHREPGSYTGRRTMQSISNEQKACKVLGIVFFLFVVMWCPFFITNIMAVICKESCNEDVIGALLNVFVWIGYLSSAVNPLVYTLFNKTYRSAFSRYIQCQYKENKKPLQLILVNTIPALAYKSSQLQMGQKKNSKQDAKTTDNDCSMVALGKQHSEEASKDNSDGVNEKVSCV

Compound | microsomal CLint at 1 μM [1, 7] | EC50 (5-HT2A receptor [2]) | EC50 (5-HT1A receptor; [8]) | EC50 (5-HT2B receptor) | EC50 (5-HT2A receptor [3]) | agonist type in arrestin recruitment assay (in words) (5-HT2A receptor [3]; 5-HT2A beta-arrestin) | EC50 (human 5-HT2C receptor) | Ki (5-HT2A receptor [4]) | ED50 (C57BL/6 mice) | Most Efficacious Dose (C57BL/6 mice) | Emax (95% CI) (C57BL/6 mice) | microsomal CLint at 1 μM [5, 9] | microsomal CLint at 1 μM [6, 10] | t1/2 [1] | t1/2 [5] | t1/2 [6] | other results
CC[C@@H](C)NC(=O)[C@@H]1C=C2c3cccc4[nH]cc(c34)C[C@H]2N(CC)C1 [Compound 5, (6aR,9R)—N—((R)-sec-butyl)-7-ethyl-4,6,6a,7,8,9-hexahydroindolo[4,3-fg]quinoline-9-carboxamide] | 72 µL/min/mg | 0.718 nM | 0.96 nM | 35.4 nM | 1.92 nM | full agonists | 1.29 nM | 2.18 nM | 0.0306 mg/kg | 0.32 mg/kg | 15.22 (11.77-19.03) | 170 µL/min/mg | 62.3 µL/min/mg | – | – | – | half-life at 1 μM [1, 7]: 19.3 min; half-life at 1 μM [5, 9]: 8.1 min; half-life at 1 μM [6, 10]: 22.2 min
CCC[C@@H](C)NC(=O)[C@@H]1C=C2c3cccc4[nH]cc(c34)C[C@H]2N(CCC)C1 [Compound 7, (6aR,9R)—N—((R)-pentan-2-yl)-7-propyl-4,6,6a,7,8,9-hexahydroindolo[4,3-fg]quinoline-9-carboxamide] | 860 µL/min/mg | 13.2 nM | 12.8 nM | 364 nM | 1.6 nM | full agonists | 1.99 nM | 0.85 nM | 58.9 mg/kg | 1 mg/kg | 720.4 (???-???) | 2560 µL/min/mg | 840 µL/min/mg | 1.612 min | 0.541 min | 1.65 min | –
C=CCN1C[C@H](C(=O)N[C@H](C)CC)C=C2c3cccc4[nH]cc(c34)C[C@H]21 [Compound 8, (6aR,9R)-7-allyl-N—((R)-sec-butyl)-4,6,6a,7,8,9-hexahydroindolo[4,3-fg]quinoline-9-carboxamide] | 180 µL/min/mg | 0.678 nM | 2.53 nM | 22.2 nM | 1.71 nM | full agonists | 4.05 nM | 2.38 nM | 0.0282 mg/kg | 1 mg/kg | 12.03 (9.571-14.68) | 377 µL/min/mg | 174 µL/min/mg | 7.7 min | 3.7 min | 7.9 min | –
CC[C@@H](C)NC(=O)[C@@H]1C=C2c3cccc4[nH]cc(c34)C[C@H]2N(C)C1 [Int8, (6aR,9R)—N—((R)-sec-butyl)-7-methyl-4,6,6a,7,8,9-hexahydroindolo[4,3-fg]quinoline-9-carboxamide] | 13.9 µL/min/mg | 10.3 nM | 9.69 nM | 71.9 nM | 4.05 nM | partial agonists | 7.32 nM | 1.07 nM | 0.106 mg/kg | 1 mg/kg | 14.34 (10.41-31.47) | 34.7 µL/min/mg | 21.3 µL/min/mg | 99.5 min | 39.9 min | 64.9 min | Emax (5-HT2A receptor [3]; 5-HT2A beta-arrestin): < 60%
CCC(CC)NC(=O)[C@H]1C=C2c3cccc4[nH]cc(c34)C[C@H]2N(C)C1 [Int14a, (6aR,9S)-7-methyl-N-(pentan-3-yl)-4,6,6a,7,8,9-hexahydroindolo[4,3-fg]quinoline-9-carboxamide] | 770 µL/min/mg | 468 nM | – | > 10000 nM | 35.7 nM | – | 508 nM | 56.2 nM | – | – | – | 816 µL/min/mg | 414 µL/min/mg | 1.8 min | 1.699 min | 3.35 min | EC50 (5-HT1A receptor): 1550 nM
CCC[C@@H](C)NC(=O)[C@H]1C=C2c3cccc4[nH]cc(c34)C[C@H]2N(C)C1 [Int17a, (6aR,9S)-7-methyl-N—((R)-pentan-2-yl)-4,6,6a,7,8,9-hexahydroindolo[4,3-fg]quinoline-9-carboxamide] | 707 µL/min/mg | 425 nM | 266 nM | > 10000 nM | 75.8 nM | – | 962 nM | 41.3 nM | – | – | – | 880 µL/min/mg | 303 µL/min/mg | 1.961 min | 1.576 min | 4.578 min | –

Reference: US20230116703A1, “NOVEL ERGOLINES AND METHODS OF TREATING MOOD DISORDERS” (priority 2021, published 2023)
